How the values were obtained:
[1] = molecular target: T1, Dual specificity tyrosine-phosphorylation-regulated kinase 3 (Homo sapiens) (UniProt O43781); experiment: Inhibition of human DYRK3 at 18.6 nM by HotSpot assay relative to control
T1 sequence (whole entry): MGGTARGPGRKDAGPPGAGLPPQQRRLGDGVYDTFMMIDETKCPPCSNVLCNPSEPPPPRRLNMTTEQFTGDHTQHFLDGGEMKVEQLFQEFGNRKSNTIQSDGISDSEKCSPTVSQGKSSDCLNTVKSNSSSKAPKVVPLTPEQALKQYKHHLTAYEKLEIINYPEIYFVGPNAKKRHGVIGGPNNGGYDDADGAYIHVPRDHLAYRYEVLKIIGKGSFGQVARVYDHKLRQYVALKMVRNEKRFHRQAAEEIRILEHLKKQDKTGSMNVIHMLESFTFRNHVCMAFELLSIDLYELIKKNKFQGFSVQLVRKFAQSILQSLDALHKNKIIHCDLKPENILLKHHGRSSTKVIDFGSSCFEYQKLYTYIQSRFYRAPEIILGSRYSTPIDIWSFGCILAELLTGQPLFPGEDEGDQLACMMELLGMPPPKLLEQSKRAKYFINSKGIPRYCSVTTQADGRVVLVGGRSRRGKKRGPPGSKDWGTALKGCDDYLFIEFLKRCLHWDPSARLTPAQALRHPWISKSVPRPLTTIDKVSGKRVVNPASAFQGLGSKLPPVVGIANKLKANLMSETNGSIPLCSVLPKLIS

[2] = molecular target: Calcium/calmodulin-dependent protein kinase kinase 2 (Homo sapiens) (UniProt Q96RR4); experiment: Inhibition of human CAMKK2 at 18.6 nM by HotSpot assay relative to control
[3] = molecular target: T2, Protein kinase C iota type (Homo sapiens) (UniProt P41743); experiment: Inhibition of human PKCiota at 18.6 nM by HotSpot assay relative to control
T2 sequence (whole entry): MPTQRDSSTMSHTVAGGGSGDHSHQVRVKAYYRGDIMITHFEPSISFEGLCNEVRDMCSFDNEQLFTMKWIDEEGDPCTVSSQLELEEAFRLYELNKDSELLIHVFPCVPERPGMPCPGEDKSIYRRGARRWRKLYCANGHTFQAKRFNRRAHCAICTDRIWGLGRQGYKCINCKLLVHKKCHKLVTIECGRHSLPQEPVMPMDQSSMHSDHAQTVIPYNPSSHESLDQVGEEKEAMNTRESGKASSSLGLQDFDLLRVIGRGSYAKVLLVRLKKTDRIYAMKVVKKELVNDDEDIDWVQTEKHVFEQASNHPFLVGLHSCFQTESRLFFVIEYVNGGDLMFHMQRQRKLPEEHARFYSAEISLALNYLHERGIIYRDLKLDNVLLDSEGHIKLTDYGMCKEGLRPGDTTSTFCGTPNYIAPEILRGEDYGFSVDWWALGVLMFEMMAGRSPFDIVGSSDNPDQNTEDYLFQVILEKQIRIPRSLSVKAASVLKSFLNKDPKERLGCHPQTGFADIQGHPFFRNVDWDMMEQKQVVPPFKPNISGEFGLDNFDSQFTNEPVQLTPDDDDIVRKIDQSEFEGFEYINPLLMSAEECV

[4] = molecular target: Protein kinase C theta type (Homo sapiens) (UniProt Q04759); experiment: Inhibition of human PKCtheta at 18.6 nM by HotSpot assay relative to control
[5] = molecular target: Protein kinase C gamma type (Homo sapiens) (UniProt P05129); experiment: Inhibition of human PKCg at 18.6 nM by HotSpot assay relative to control
[6] = molecular target: Mitogen-activated protein kinase kinase kinase 8 (Homo sapiens) (UniProt P41279); experiment: Inhibition of human COT1 at 1.82 nM by HotSpot assay relative to control
[7] = molecular target: T3, Mitogen-activated protein kinase kinase kinase 2 (Homo sapiens) (UniProt Q9Y2U5); experiment: Inhibition of human MEKK2 at 1.82 nM by HotSpot assay relative to control
T3 sequence (whole entry): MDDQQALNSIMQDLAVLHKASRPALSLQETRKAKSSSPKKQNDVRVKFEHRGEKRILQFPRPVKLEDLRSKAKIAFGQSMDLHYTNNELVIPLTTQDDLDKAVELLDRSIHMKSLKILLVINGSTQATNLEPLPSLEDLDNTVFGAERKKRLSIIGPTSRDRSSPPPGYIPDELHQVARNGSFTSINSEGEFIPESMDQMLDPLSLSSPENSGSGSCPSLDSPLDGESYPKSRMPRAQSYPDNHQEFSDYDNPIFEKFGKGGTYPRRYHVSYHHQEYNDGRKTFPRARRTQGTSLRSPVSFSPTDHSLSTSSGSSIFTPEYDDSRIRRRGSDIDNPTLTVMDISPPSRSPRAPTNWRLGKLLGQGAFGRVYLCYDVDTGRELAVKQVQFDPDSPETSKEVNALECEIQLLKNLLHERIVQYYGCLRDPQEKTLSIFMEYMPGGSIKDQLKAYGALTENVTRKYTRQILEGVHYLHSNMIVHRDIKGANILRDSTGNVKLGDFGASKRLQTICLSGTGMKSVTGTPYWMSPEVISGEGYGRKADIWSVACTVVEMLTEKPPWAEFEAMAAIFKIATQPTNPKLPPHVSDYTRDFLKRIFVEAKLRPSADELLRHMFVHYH

[8] = molecular target: Dual specificity protein kinase CLK3 (Homo sapiens) (UniProt P49761); details: dose 1.82 nM
Description: Inhibition of human CLK3 at 1.82 nM by HotSpot assay relative to control

[9] = molecular target: Serine/threonine-protein kinase Chk2 (Homo sapiens) (UniProt O96017); experiment: Inhibition of human CHK2 at 1.82 nM by HotSpot assay relative to control
[10] = molecular target: T4, Homeodomain-interacting protein kinase 4 (Homo sapiens) (UniProt Q8NE63); experiment: Inhibition of human HIPK4 at 1.82 nM by HotSpot assay relative to control
T4 sequence (whole entry): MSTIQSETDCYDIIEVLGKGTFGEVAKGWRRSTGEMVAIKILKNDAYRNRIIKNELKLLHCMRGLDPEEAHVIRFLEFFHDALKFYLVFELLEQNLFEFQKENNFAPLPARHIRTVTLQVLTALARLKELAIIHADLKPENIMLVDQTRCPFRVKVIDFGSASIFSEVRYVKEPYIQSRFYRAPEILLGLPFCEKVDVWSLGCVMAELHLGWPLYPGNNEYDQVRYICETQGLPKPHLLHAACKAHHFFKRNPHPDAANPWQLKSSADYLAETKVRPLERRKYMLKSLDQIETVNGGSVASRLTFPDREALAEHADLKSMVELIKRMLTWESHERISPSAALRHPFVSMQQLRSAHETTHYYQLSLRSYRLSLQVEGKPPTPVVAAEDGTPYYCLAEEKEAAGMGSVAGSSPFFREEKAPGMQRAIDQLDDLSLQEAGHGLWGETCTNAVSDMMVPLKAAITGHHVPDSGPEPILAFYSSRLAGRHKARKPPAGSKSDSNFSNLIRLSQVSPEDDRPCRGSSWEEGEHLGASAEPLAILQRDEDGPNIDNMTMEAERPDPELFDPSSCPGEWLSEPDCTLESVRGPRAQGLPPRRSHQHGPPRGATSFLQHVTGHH

Chain of Protein kinase C theta type (Homo sapiens) (Q04759 whole entry, looked up): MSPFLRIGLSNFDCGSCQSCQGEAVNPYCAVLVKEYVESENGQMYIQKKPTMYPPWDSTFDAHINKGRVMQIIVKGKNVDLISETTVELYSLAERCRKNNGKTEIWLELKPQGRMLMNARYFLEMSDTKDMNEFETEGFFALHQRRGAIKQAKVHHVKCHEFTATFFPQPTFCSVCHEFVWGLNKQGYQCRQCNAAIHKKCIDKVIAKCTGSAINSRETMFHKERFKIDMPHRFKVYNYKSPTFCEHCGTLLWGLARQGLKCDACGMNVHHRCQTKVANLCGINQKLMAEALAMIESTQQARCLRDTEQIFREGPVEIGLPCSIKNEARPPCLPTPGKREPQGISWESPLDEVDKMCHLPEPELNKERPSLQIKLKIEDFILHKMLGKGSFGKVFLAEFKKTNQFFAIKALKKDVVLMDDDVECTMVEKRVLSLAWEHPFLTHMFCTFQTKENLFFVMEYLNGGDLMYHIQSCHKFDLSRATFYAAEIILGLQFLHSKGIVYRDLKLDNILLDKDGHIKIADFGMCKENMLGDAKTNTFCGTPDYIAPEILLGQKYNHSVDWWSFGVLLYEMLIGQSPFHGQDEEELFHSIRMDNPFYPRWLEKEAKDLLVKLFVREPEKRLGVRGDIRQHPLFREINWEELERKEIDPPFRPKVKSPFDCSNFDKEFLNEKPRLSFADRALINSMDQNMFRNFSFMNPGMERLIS
Chain of Calcium/calmodulin-dependent protein kinase kinase 2 (Homo sapiens) (Q96RR4 2-588 limits assumed): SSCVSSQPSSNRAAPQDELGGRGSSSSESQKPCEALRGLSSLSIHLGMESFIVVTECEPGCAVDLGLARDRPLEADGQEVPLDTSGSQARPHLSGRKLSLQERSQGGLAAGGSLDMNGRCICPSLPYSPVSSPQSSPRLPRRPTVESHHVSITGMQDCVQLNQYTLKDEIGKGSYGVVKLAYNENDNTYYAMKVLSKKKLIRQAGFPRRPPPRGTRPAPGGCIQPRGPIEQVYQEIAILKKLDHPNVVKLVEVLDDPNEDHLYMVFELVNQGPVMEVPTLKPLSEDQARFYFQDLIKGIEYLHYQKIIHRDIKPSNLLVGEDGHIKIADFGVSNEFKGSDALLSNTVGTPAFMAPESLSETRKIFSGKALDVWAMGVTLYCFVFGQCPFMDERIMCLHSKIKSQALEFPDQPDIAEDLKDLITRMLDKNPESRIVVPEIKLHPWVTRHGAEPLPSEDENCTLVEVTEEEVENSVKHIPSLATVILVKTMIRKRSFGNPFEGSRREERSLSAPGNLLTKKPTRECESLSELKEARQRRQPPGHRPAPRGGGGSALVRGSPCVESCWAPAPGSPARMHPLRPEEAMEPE
Chain of Serine/threonine-protein kinase Chk2 (Homo sapiens) (O96017 whole entry): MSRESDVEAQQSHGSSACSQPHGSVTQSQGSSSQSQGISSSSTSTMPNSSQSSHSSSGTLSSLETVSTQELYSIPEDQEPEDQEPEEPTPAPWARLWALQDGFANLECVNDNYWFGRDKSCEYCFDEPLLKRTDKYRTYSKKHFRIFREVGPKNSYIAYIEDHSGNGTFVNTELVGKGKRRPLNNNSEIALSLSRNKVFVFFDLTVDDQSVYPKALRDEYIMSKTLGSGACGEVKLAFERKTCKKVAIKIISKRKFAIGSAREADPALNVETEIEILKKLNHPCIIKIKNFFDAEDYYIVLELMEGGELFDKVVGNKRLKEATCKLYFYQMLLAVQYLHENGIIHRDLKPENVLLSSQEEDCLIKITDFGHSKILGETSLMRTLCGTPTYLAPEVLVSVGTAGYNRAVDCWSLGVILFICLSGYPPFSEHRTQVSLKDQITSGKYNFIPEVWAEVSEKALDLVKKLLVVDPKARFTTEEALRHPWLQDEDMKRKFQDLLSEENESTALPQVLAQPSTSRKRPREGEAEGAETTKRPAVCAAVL
Chain of Dual specificity protein kinase CLK3 (Homo sapiens) (P49761 whole entry, looked up): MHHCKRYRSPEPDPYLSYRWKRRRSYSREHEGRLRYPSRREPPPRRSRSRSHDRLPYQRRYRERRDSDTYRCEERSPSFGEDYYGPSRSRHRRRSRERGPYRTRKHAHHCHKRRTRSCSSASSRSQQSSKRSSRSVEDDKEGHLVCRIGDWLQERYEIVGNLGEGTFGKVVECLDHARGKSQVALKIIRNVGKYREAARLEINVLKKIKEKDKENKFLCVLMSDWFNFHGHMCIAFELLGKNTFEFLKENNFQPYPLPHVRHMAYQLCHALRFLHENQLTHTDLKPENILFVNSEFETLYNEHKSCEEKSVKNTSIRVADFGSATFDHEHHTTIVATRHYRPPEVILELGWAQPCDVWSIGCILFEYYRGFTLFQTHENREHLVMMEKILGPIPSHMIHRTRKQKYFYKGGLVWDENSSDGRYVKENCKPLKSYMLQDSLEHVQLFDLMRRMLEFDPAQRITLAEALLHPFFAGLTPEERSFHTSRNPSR
Chain of Mitogen-activated protein kinase kinase kinase 8 (Homo sapiens) (P41279 whole entry): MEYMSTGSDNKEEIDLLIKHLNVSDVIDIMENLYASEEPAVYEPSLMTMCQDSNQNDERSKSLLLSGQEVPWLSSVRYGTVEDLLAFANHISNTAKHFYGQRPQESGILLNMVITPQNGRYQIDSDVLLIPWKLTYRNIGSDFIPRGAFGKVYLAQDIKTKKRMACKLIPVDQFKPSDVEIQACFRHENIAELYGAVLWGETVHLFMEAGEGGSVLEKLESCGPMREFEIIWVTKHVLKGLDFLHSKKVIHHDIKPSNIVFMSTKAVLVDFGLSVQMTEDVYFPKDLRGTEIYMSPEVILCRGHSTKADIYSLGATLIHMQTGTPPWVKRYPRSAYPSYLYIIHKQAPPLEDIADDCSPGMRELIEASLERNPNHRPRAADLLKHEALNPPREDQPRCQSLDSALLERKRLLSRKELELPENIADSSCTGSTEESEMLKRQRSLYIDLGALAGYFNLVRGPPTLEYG

| inhibition [1] [%] | inhibition [2] [%] | inhibition [3] [%] | inhibition [4] [%] | inhibition [5] [%] | inhibition [6] [%] | inhibition [7] [%] | inhibition [8] [%] | inhibition [9] [%] | inhibition [10] [%] | SMILES |
| --- | --- | --- | --- | --- | --- | --- | --- | --- | --- | --- |
| 3.01 | 28 | -2.19 | -9.99 | -8 | – | – | – | – | – | C[C@]1(O)C[C@@H](c2nc(-c3ccc4ccc(-c5ccccc5)nc4c3)c3c(N)nccn32)C1 |
| – | – | – | – | – | 10.7 | -7.18 | -1.35 | 0.29 | -0.23 | C[C@@]1(C(=O)Nc2ccc(F)nc2)CCCN1c1nc(Nc2cc(C3CC3)n[nH]2)c2cccn2n1 |

Source: ChEMBL document CHEMBL5653615 (J Biol Chem, 2013)
